Key:
Parameters in all cases: scale not given: the % may be the effect or the level left
[1] = tested on: Tyrosine-protein kinase ABL1 (Homo sapiens), P00519 [E255K]; assay: Inhibition of DNA-tagged phosphorylated human ABL1 E255K mutant assessed as percent of control at 50000 nM by qPCR analysis relative to control
[2] = target: Death-associated protein kinase 1 (Homo sapiens) (UniProt P53355); assay: Inhibition of DNA-tagged human DAPK1 assessed as percent of control at 50000 nM by qPCR analysis relative to control
[3] = target: Serine/threonine-protein kinase LATS1 (Homo sapiens) (UniProt O95835); assay: Inhibition of DNA-tagged human LATS1 assessed as percent of control at 50000 nM by qPCR analysis relative to control
[4] = target: Mitogen-activated protein kinase kinase kinase kinase 5 (Homo sapiens) (UniProt Q9Y4K4); assay: Inhibition of DNA-tagged human MAP4K5 assessed as percent of control at 50000 nM by qPCR analysis relative to control
[5] = target: Fibroblast growth factor receptor 2 (Homo sapiens) (UniProt P21802); assay: Inhibition of DNA-tagged human FGFR2 assessed as percent of control at 50000 nM by qPCR analysis relative to control
[6] = target: Insulin receptor (Homo sapiens) (UniProt P06213); assay: Inhibition of DNA-tagged human INSR assessed as percent of control at 50000 nM by qPCR analysis relative to control
[7] = target: Phosphatidylinositol 4-phosphate 5-kinase type-1 alpha (Homo sapiens) (UniProt Q99755); assay: Inhibition of DNA-tagged human PIP5K1A assessed as percent of control at 50000 nM by qPCR analysis relative to control
[8] = target: Eukaryotic translation initiation factor 2-alpha kinase 1 (Homo sapiens) (UniProt Q9BQI3); assay: Inhibition of DNA-tagged human EIF2AK1 assessed as percent of control at 50000 nM by qPCR analysis relative to control
[9] = tested on: Tyrosine-protein kinase ABL1 (Homo sapiens), P00519 [F317I]; assay: Inhibition of DNA-tagged non-phosphorylated human ABL1 F317I mutant assessed as percent of control at 50000 nM by qPCR analysis relative to control
[10] = target: Serine/threonine-protein kinase D3 (Homo sapiens) (UniProt O94806); assay: Inhibition of DNA-tagged human PRKD3 assessed as percent of control at 50000 nM by qPCR analysis relative to control
[11] = target: Mitogen-activated protein kinase kinase kinase 3 (Homo sapiens) (UniProt Q99759); assay: Inhibition of DNA-tagged human MAP3K3 assessed as percent of control at 50000 nM by qPCR analysis relative to control
[12] = target: Macrophage colony-stimulating factor 1 receptor (Homo sapiens) (UniProt P07333); assay: Inhibition of DNA-tagged human CSF1R assessed as percent of control at 50000 nM by qPCR analysis relative to control
[13] = target: Mitogen-activated protein kinase kinase kinase 19 (Homo sapiens) (UniProt Q56UN5); assay: Inhibition of DNA-tagged human YSK4 assessed as percent of control at 50000 nM by qPCR analysis relative to control
[14] = tested on: Tyrosine-protein kinase ABL1 (Homo sapiens), P00519 [UNDEFINED MUTATION]; assay: Inhibition of DNA-tagged phosphorylated human ABL1 […] mutant assessed as percent of control at 50000 nM by qPCR analysis relative to control
[15] = tested on: Receptor-type tyrosine-protein kinase FLT3 (Homo sapiens), P36888 [N841I]; assay: Inhibition of DNA-tagged human FLT3 N841I mutant assessed as percent of control at 50000 nM by qPCR analysis relative to control
[16] = target: Myosin-IIIa (Homo sapiens) (UniProt Q8NEV4); assay: Inhibition of DNA-tagged human MYO3A assessed as percent of control at 50000 nM by qPCR analysis relative to control
[17] = tested on: Epidermal growth factor receptor (Homo sapiens), P00533 [UNDEFINED MUTATION]; assay: Inhibition of DNA-tagged human EGFR L747-S752del/P753S double mutant assessed as percent of control at 50000 nM by qPCR analysis relative to control
[18] = tested on: Mast/stem cell growth factor receptor Kit (Homo sapiens), P10721 [V559D,V654A]; assay: Inhibition of DNA-tagged human KIT V559D/V654A double mutant assessed as percent of control at 50000 nM by qPCR analysis relative to control
[19] = target: Calcium/calmodulin-dependent protein kinase kinase 1 (Homo sapiens) (UniProt Q8N5S9); assay: Inhibition of DNA-tagged human CAMKK1 assessed as percent of control at 50000 nM by qPCR analysis relative to control
[20] = target: MAP kinase-activated protein kinase 5 (Homo sapiens) (UniProt Q8IW41); assay: Inhibition of DNA-tagged human MAPKAPK5 assessed as percent of control at 50000 nM by qPCR analysis relative to control
[21] = tested on: Receptor-type tyrosine-protein kinase FLT3 (Homo sapiens), P36888 [R834Q]; assay: Inhibition of DNA-tagged human FLT3 R834Q mutant assessed as percent of control at 50000 nM by qPCR analysis relative to control
[22] = target: Serine/threonine-protein kinase 32A (Homo sapiens) (UniProt Q8WU08); assay: Inhibition of DNA-tagged human YANK1 assessed as percent of control at 50000 nM by qPCR analysis relative to control
[23] = tested on: Epidermal growth factor receptor (Homo sapiens), P00533 [UNDEFINED MUTATION]; assay: Inhibition of DNA-tagged human EGFR E746-A750del mutant assessed as percent of control at 50000 nM by qPCR analysis relative to control
[24] = target: Serine/threonine-protein kinase SIK2 (Homo sapiens) (UniProt Q9H0K1); assay: Inhibition of DNA-tagged human SIK2 assessed as percent of control at 50000 nM by qPCR analysis relative to control
[25] = target: Ephrin type-B receptor 3 (Homo sapiens) (UniProt P54753); assay: Inhibition of DNA-tagged human EPHB3 assessed as percent of control at 50000 nM by qPCR analysis relative to control
[26] = target: Wee1-like protein kinase (Homo sapiens) (UniProt P30291); assay: Inhibition of DNA-tagged human WEE1 assessed as percent of control at 50000 nM by qPCR analysis relative to control
[27] = target: Glycogen synthase kinase-3 alpha (Homo sapiens) (UniProt P49840); assay: Inhibition of DNA-tagged human GSK3A assessed as percent of control at 50000 nM by qPCR analysis relative to control
[28] = target: Tyrosine-protein kinase ABL1 (Homo sapiens) (UniProt P00519); assay: Inhibition of DNA-tagged phosphorylated human ABL1 assessed as percent of control at 50000 nM by qPCR analysis relative to control
[29] = target: Serine/threonine-protein kinase TNNI3K (Homo sapiens) (UniProt Q59H18); assay: Inhibition of DNA-tagged human TNNI3K assessed as percent of control at 50000 nM by qPCR analysis relative to control

Chain of Epidermal growth factor receptor (Homo sapiens), P00533 [UNDEFINED MUTATION] (P00533 whole entry, looked up, stated change not applied): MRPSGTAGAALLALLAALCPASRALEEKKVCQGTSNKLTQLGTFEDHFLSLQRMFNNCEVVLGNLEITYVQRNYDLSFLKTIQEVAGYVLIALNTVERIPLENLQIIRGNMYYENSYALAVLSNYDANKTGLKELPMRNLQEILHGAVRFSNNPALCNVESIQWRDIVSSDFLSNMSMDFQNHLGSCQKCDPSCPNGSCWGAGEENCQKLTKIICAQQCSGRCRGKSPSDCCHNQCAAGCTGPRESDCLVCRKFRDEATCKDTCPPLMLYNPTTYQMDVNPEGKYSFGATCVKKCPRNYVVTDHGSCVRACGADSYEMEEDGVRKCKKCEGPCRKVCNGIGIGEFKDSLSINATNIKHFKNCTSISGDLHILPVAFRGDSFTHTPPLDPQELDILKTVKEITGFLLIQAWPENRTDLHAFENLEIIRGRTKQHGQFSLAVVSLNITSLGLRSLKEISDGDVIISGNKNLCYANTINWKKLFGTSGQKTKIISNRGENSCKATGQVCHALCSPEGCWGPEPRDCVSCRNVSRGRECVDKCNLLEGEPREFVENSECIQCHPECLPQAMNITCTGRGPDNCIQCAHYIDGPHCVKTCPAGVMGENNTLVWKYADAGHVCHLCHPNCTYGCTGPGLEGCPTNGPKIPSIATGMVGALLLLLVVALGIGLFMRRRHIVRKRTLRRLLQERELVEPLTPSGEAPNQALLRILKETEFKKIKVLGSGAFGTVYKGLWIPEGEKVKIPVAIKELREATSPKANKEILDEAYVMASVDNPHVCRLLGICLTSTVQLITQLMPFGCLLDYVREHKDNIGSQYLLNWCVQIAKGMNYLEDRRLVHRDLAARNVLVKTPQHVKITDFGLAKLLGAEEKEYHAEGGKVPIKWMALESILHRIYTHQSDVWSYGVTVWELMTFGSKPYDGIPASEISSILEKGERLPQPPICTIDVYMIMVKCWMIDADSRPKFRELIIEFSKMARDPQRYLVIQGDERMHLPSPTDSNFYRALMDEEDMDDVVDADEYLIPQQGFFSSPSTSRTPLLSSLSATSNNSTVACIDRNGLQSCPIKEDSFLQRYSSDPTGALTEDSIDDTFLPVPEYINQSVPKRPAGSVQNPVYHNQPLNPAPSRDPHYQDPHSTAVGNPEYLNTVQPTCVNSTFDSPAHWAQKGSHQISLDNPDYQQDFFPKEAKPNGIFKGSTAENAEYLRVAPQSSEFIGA
Chain of Glycogen synthase kinase-3 alpha (Homo sapiens) (P49840 2-483 limits assumed): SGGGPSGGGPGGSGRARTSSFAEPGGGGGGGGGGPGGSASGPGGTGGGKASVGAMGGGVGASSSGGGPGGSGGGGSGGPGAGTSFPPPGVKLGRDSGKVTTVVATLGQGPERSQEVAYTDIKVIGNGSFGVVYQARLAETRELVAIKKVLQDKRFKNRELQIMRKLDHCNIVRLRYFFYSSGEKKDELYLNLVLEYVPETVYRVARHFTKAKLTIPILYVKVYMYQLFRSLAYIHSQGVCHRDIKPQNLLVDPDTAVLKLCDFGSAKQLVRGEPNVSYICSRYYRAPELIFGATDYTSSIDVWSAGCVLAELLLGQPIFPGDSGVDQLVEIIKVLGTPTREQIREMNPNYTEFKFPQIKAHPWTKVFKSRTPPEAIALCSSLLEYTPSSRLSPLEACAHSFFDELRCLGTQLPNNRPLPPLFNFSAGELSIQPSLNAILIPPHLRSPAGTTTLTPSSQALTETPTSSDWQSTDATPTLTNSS
Chain of Mitogen-activated protein kinase kinase kinase 19 (Homo sapiens) (Q56UN5 whole entry): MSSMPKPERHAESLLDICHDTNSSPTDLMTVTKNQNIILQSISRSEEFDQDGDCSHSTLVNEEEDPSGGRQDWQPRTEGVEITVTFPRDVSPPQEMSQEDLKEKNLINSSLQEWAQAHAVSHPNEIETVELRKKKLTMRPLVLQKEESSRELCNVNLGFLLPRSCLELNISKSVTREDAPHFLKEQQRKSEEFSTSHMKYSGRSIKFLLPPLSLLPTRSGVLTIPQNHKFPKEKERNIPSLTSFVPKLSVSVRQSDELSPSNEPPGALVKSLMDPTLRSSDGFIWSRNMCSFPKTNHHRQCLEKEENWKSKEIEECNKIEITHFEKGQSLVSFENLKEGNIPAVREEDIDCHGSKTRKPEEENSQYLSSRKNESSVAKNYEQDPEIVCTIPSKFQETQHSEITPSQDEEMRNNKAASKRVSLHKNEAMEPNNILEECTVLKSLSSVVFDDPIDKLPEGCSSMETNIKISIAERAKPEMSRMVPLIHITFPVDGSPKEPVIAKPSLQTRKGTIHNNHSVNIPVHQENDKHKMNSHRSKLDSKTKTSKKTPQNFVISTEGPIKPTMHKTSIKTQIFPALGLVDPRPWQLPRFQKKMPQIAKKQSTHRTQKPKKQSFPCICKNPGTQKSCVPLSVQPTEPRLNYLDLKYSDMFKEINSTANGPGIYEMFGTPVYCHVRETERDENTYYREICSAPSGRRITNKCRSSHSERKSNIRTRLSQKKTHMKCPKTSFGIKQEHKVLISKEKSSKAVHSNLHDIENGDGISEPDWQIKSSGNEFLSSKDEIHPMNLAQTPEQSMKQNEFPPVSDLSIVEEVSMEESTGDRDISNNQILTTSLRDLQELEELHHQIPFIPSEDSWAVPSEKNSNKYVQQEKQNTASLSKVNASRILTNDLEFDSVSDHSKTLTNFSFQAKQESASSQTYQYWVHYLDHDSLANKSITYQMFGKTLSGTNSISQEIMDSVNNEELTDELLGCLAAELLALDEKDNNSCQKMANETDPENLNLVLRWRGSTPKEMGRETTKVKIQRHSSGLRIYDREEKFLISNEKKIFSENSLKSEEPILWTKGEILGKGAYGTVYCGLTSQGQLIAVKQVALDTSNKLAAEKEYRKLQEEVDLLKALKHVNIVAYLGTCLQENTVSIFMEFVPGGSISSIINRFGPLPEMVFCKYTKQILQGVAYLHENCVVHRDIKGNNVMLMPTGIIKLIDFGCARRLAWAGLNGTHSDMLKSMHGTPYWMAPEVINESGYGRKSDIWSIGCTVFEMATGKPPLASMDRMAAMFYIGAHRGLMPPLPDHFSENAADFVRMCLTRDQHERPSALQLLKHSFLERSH
Chain of Insulin receptor (Homo sapiens) (P06213 28-758 limits assumed): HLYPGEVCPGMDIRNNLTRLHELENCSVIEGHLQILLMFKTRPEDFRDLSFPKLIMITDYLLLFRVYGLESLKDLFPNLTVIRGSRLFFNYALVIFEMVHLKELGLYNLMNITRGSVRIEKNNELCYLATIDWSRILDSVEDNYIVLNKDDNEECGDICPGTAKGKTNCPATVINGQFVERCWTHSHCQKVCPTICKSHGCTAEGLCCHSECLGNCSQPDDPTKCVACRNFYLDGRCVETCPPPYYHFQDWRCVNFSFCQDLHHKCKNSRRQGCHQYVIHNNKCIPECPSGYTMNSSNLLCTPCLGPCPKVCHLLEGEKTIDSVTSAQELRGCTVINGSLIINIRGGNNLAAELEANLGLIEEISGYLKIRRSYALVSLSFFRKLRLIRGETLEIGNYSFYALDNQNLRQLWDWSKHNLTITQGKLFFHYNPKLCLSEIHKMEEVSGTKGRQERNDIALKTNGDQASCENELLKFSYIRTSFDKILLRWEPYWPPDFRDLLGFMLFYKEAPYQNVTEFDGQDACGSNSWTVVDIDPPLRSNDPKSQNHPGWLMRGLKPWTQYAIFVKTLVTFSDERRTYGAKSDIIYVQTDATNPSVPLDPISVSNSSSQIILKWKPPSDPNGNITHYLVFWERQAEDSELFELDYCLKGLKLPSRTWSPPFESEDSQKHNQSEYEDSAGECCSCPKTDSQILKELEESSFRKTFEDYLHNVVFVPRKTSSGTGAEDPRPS
Chain of Insulin receptor (Homo sapiens) (P06213 763-1382 limits assumed): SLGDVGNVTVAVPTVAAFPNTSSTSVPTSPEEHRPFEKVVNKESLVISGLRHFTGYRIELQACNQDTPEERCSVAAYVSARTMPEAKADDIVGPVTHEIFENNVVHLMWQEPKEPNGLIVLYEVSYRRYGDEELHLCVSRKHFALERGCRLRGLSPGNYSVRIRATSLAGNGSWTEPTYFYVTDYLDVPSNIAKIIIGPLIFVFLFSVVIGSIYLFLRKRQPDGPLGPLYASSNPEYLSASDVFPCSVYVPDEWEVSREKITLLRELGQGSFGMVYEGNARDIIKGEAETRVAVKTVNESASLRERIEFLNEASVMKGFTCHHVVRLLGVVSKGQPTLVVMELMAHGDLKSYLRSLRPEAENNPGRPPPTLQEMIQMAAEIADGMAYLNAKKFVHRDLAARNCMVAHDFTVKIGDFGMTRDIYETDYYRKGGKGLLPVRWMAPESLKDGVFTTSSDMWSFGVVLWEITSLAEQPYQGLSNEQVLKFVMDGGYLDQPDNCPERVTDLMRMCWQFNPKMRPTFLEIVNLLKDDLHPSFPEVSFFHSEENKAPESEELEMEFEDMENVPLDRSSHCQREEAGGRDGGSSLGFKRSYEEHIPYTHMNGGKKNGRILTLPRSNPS
Chain of Mitogen-activated protein kinase kinase kinase 3 (Homo sapiens) (Q99759 whole entry): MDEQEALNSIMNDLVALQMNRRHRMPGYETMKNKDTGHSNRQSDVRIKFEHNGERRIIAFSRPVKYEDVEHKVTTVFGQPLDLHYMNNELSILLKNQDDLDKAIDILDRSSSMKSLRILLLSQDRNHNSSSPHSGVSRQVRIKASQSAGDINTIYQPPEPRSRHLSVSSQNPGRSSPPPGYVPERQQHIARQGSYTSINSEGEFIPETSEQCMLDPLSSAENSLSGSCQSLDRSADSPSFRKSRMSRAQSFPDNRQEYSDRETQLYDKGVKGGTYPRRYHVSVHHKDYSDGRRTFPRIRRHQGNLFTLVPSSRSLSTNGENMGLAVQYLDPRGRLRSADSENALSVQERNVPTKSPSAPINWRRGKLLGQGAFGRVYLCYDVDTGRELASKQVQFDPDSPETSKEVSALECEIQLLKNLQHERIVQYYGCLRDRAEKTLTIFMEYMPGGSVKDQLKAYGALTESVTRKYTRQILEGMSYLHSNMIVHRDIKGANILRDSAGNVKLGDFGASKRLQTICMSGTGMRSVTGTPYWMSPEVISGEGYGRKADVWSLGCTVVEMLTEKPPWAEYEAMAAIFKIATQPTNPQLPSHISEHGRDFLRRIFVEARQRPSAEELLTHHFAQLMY

Structure (SMILES): CN1C(=O)/C(=C2/C(=O)Nc3ccccc32)c2ccccc21
- Activity [1]: 100%
- Activity [2]: 86%
- Activity [3]: 100%
- Activity [4]: 100%
- Activity [5]: 89%
- Activity [6]: 91%
- Activity [7]: 100%
- Activity [8]: 64%
- Activity [9]: 100%
- Activity [10]: 94%
- Activity [11]: 94%
- Activity [12]: 98%
- Activity [13]: 91%
- Activity [14]: 94%
- Activity [15]: 100%
- Activity [16]: 100%
- Activity [17]: 64%
- Activity [18]: 100%
- Activity [19]: 86%
- Activity [20]: 100%
- Activity [21]: 100%
- Activity [22]: 99%
- Activity [23]: 83%
- Activity [24]: 95%
- Activity [25]: 90%
- Activity [26]: 91%
- Activity [27]: 85%
- Activity [28]: 96%
- Activity [29]: 95%

— ChEMBL document CHEMBL4804284
